Results reported in ChEMBL document CHEMBL1139456, “Discovery of alpha,gamma-diketo acids as potent selective and reversible inhibitors of hepatitis C virus NS5b RNA-dependent RNA polymerase” (J Med Chem, 2004).

Tests used:
[1] = target: RNA-directed RNA polymerase (Hepacivirus hominis, UniProt O39930); experiment: Inhibitory activity against Hepatitis C virus RNA dependent RNA polymerase nonstructural protein 5B
[2] = target: Nucleic Acid; experiment: Inhibitory activity against beta human DNA polymerase was determined; type: nucleic-acid assay
[3] = target: Nucleic Acid; experiment: Inhibitory activity against gamma human DNA polymerase was determined; type: nucleic-acid assay
[4] = target: Human immunodeficiency virus type 1 reverse transcriptase (Human immunodeficiency virus 1, UniProt Q72547); experiment: Inhibitory activity against HIV-1 reverse transcriptase was determined
[5] = target: Nucleic Acid; experiment: Inhibitory activity against alpha human DNA polymerase was determined; type: nucleic-acid assay

Chain of RNA-directed RNA polymerase (O39930 whole entry): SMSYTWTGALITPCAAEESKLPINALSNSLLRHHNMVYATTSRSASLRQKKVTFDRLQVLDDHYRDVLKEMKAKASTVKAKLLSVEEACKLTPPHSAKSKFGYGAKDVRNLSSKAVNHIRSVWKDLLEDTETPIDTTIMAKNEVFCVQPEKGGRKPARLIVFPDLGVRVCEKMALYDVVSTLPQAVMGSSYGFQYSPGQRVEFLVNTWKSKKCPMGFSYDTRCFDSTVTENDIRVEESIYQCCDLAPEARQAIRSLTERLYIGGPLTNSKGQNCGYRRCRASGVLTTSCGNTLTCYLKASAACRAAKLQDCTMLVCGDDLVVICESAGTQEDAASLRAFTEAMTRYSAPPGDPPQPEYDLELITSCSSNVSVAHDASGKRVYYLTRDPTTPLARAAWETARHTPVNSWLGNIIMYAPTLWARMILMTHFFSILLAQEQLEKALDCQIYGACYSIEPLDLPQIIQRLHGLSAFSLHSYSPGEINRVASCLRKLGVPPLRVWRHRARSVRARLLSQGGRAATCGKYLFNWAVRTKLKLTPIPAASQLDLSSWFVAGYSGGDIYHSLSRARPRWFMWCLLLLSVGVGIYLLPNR

Compound | IC50 [1] [µM] | further results
O=C(O)C(=O)CC(=O)C(c1ccccc1)c1ccccc1 | > 50 | 
CCCCOc1ccccc1C(=O)CC(=O)C(=O)O | 10 | 
CCc1ccc(C(=O)CC(=O)C(=O)O)cc1 | 47 | 
O=C(O)C(=O)CC(=O)c1ccco1 | > 50 | 
CC(=O)CC(=O)C(=O)O | > 50 | 
N#CCCCOc1cccc(/C(O)=C/C(=O)C(=O)O)c1 | 2.5 | 
N#CCCCOc1ccc(OCc2ccccc2C#N)cc1/C(O)=C/C(=O)C(=O)O | > 50 | 
CCCOc1ccccc1C(=O)CC(=O)C(=O)O | 3.9 | 
CC(C)(C)C(=O)CC(=O)C(=O)O | > 50 | 
CC(C)(C)c1ccc(C(=O)CC(=O)C(=O)O)cc1 | > 50 | 
O=C(O)C(=O)CC(=O)c1cccc(OCc2ccccc2)c1 | 8 | 
O=C(O)C(=O)CC(=O)c1ccncc1 | > 50 | 
COC(=O)C(=O)CC(=O)c1ccccc1 | > 50 | 
N#Cc1ccccc1COc1cccc(/C(O)=C/C(=O)C(=O)O)c1 | 0.23 | 
O=C(O)C(=O)CC(=O)c1cccc(NCc2ccccc2)c1 | 16.7 | 
O=C(O)C(=O)CC(=O)c1cccnc1 | > 50 | 
N#CCCCOc1ccccc1C(=O)CC(=O)C(=O)O | 0.35 | 
O=C(O)C(=O)CCc1ccccc1 | > 50 | 
O=C(CC(O)C(=O)O)c1ccccc1 (stereo not given) | > 50 | 

More lines, main results first:

IC50 [1] [µM] | Compound | further results
5.7 | O=C(O)C(=O)CC(=O)c1ccccc1 | 
0.045 | N#Cc1c(Cl)cc(Cl)cc1COc1cccc(/C(O)=C/C(=O)C(=O)O)c1 | IC50 [2]: > 5 µM; IC50 [3]: > 5 µM; IC50 [4]: > 50 µM; IC50 [5]: > 5 µM
0.11 | N#Cc1c(Cl)cccc1COc1cccc(/C(O)=C/C(=O)C(=O)O)c1 | 
25 | CCCCCOc1ccccc1C(=O)CC(=O)C(=O)O | 
11 | O=C(O)C(=O)CC(=O)c1cccc(NC(=O)c2ccccc2)c1 | 
0.1 | N#Cc1ccc(Br)cc1COc1cccc(/C(O)=C/C(=O)C(=O)O)c1 | 
6.7 | N#Cc1cccc(COc2cccc(/C(O)=C/C(=O)C(=O)O)c2)c1 | 
4.5 | O=C(O)C(=O)CC(=O)c1ccsc1 | 
16 | O=C(O)C(=O)CC(=O)c1cccc(NS(=O)(=O)c2ccccc2)c1 | 
44 | O=C(O)C(=O)CC(=O)c1ccccc1OCc1ccccc1 | 
30 | O=C(O)C(=O)CC(=O)c1cccc(COc2ccccc2)c1 | 
5 | Cc1ccc(C(=O)CC(=O)C(=O)O)cc1 | 
